Assay results taken from patent publication US20200289554A1, “BIOORTHOGONAL COMPOUNDS COMPRISING A PROPARGYL GROUP FOR TREATING CANCER” (THE UNIVERSITY COURT OF THE UNIVERSITY OF EDINBURGH, priority 2016, published 2020).

Tests used:
A549 cells = test: BOOM conversion: prodrug + metal resins in cell culture, cell viability, A549; type: cell-based, human
Procedure: Cell viabilities for each prodrug provided as a combination with palladium is presented in FIG. 3 and gold is presented in FIG. 33 in the right of each set of two bars. […] Cells were incubated in tissue culture media containing 0.1% (v/v) DMSO and: Pd^0, Au, or Pd/Au-resins (1 mg/mL, negative control); 100 μM of each prodrug (negative control); and Pd^0, Au, or Pd/Au-resins (1 mg/mL)+100 μM of each prodrug (BOOM reaction assay). Cells incubated in 0.1% (v/v) DMSO in media were used as untreated cell control.
(§1) Following 5 days treatment, cells were incubated with PrestoBlue™ Cell Viability Reagent (Life Technologies) for 60-90 min. Fluorescence intensity values were related to the untreated cells (100% cell viability). […] Cells incubated in 0.1% (v/v) DMSO in media were used as untreated cell control.
(§2) Cell viabilities for each prodrug provided as a combination with palladium is presented in FIG. 7 in the right of each set of two bars. Data for prodrug in the absence of palladium catalyst is also provided (the left bar of each set of two bars) for comparison along with negative controls (from left to right: DMSO, Pd^0 and Doxorubicin). Cells were incubated in tissue culture media containing 0.1% (v/v) DMSO and: Pd^0-resins (1 mg/mL, negative control); 1 μM of each prodrug (negative control); and Pd^0-resins (1 mg/mL)+1 μM of each prodrug (BOOM reaction assay). Cells incubated in 0.1% (v/v) DMSO in media were used as untreated cell control.
(§3) Following 5 days treatment, cells were incubated with PrestoBlue™ Cell Viability Reagent (Life Technologies) for 90 min. Fluorescence intensity values were related to the untreated cells (100% cell viability). Data are provided in FIG. 8 for cells incubated in tissue culture media containing 0.1% (v/v) DMSO and: Pd^0-resins (1 mg/mL, negative control); 0.3-3 μM of Doxorubicin prodrug for A549 and DU145 cell lines, 0.1-1 μM of Doxorubicin prodrug for T98 cell line (negative control); 0.3-3 μM of Doxorubicin for A549 and DU145 cell lines, 0.1-1 μM of Doxorubicin for T98 cell line (positive control); and Pd^0-resin (1 mg/mL)+Doxorubicin prodrug (BOOM reaction assay). Cells incubated in 0.1% (v/v) DMSO in media were used as untreated cell control.
as §2, with “21” for “7”, “panobinostat).” for “Doxorubicin).”
(§4) The toxigenic effect as a result of in situ generation of parental drug in cell culture was determined by incubating all cells in tissue culture media containing 0.1% (v/v) DMSO and a) Pd^0, Au, or Pd/Au-resin (1 mg/mL for all cells tested, negative control); b) prodrug (negative control); or c) Pd^0, Au, or Pd/Au-resin (1 mg/mL for all cells)+prodrug (reaction assay). Cells incubated in 0.1% (v/v) DMSO in media was used as an untreated cell reference standard (100% viability). A PrestoBlue® cell viability assay as described above was carried out and fluorescent intensities compared to the untreated cell control.
(§5) A dose response study was performed for each cell line keeping the quantity of Pd^0 resin constant (0.8 mg/mL for U87G and 1 mg/mL for the rest of cell lines). All cells were plated in Dulbecco's Modified Eagle Media (DMEM) supplemented with serum (10% FBS) and L-glutamine (2 mM). […]

T98 cells = test: BOOM conversion: prodrug + Pd0-resins in cell culture, cell viability, T98; type: cell-based, human; conditions: Homo sapiens, 120 h, prodrug in combination with Pd0-resins 1 mg/mL, 5 days, read-out: EC50, prodrug + Pd-resins
Procedure: as §1, §2, §3, §4, §5

EC50 (A549 cells; Homo sapiens, 120 h, prodrug in combination with Pd0-resins 1 mg/mL, 5 days, read-out: EC50, prodrug + Pd-resins): 10.5 µM
Structure (SMILES): C#CCOc1ccc(CONC(=O)CCCCCCC(=O)Nc2ccccc2)cc1 [POB-Vor, Propargyloxybenzyl-Vorinostat]
toxigenic effect of prodrug + Au resins (A549 cells; Au resins 1 mg/mL, prodrug 100 μM): strong toxigenic effect | toxigenic effect of prodrug + Pd0 resins (A549 cells; Pd0-resin 1 mg/mL, 100 μM Vorinostat prodrugs, 1 μM Doxorubicin prodrugs, 0.3 μM Panobinostat prodrug): strong toxigenic effect | toxigenic effect of prodrug + Pd/Au resins (A549 cells; Pd/Au resins 1 mg/mL, prodrug 100 μM): strong toxigenic effect | EC50 (T98 cells): 16.8 µM
